According to US20220062296A1, “COMBINATIONS OF GABAA ALPHA 5 AGONISTS AND SV2A INHIBITORS AND METHODS OF USING IN THE TREATMENT OF COGNITIVE IMPAIRMENT” (AGENEBIO, INC., priority 2020, published 2022):

How the values were obtained:
[1] = cited from earlier work
aMCI subjects = test: Explicit 3-alternative forced choice task (lure identification); type: in vivo, human
Excerpt: There are various tests known in the art for assessing cognitive function in humans, for example and without limitation, the clinical global impression of change scale (CIBIC-plus scale); the Mini Mental State Exam (MMSE); the Neuropsychiatric Inventory (NPI); the Clinical Dementia Rating Scale (CDR); the Cambridge Neuropsychological Test Automated Battery (CANTAB); the Sandoz Clinical Assessment-Geriatric (SCAG), the Buschke Selective Reminding Test (Buschke and Fuld, 1974); the Verbal Paired Associates subtest; the Logical Memory subtest; the Visual Reproduction sub test of the Wechsler Memory Scale-Revised (WMS-R) (Wechsler, 1997); the Benton Visual Retention Test, or MATRICS consensus neuropsychological test battery which includes tests of working memory, speed of processing, attention, verbal learning, visual learning, reasoning and problem solving and social cognition. See Folstein et al., J Psychiatric Res 12: 189-98, (1975); Robbins et al., Dementia 5: 266-81, (1994); Rey, L'examen clinique en psychologie, (1964); Kluger et al., J Geriatr Psychiatry Neurol 12:168-79, (1999); Marquis et al., 2002 and Masur et al., 1994. Also see Buchanan, R. W., Keefe, R. S. E., Umbricht, D., Green, M. F., Laughren, T., and Marder, S. R. (2011), The FDA-NIMH-MATRICS guidelines for clinical trial design of cognitive-enhancing drugs: what do we know 5 years later? Schizophr. Bull. 37, 1209-1217. Another example of a cognitive test in humans is the explicit 3-alternative forced choice task. […]
(§1) The activity of the subject's medial temporal lobe is measured by functional MRI during the subject's participation in an explicit 3-alternative forced choice task, where participants view novel, repeated and similar (“lure”) stimuli. […]
as §1

Q: For CC[C@@H](C(N)=O)N1CCCC1=O [levetiracetam, (2S)-2-(2-oxopyrrolidin-1-yl)butanamide], which “plasma half-life in elderly” value ([1]; expected, due to decreased renal function) is on record?
A: 9 to 10 h

Q: And the “time to steady state” value ([1]; multiple twice-daily dosing)?
A: 2 days

Q: What about the plasma half-life ([1]; oral administration) of the same compound?
A: approximately 7±1 hour

Q: And the “absorption after oral administration” value ([1]; oral)?
A: rapidly and almost completely absorbed

Q: And the “effect of food on bioavailability” value ([1]; oral)?
A: not affected by food

Q: And the “time of peak plasma concentrations following oral administration” value ([1]; oral)?
A: about 1 hour

Q: And the “performance in the explicit 3-alternative forced choice task” value (shortened to “performance”) (aMCI subjects; levetiracetam 62.5 mg BID, p=0.041)?
A: improves significantly

Q: What about the “performance” value (aMCI subjects; levetiracetam 125 mg twice a day for two weeks, p=0.039) of the same compound?
A: improves significantly

Q: And the “performance” value (aMCI subjects; levetiracetam 250 mg BID, p=0.2396)?
A: does not significantly improve
